Results published in PMC12217109, “Development of novel benzamide class I selective lysine deacetylase inhibitors as potent anticancer agents” (Journal of Enzyme Inhibition and Medicinal Chemistry, 2025).
Like-named read-outs stand apart in the source and are kept apart here.

What was measured:
T-47D = assay: NCI-60 cytotoxicity screen; type: cell-based, human; conditions: for IC50: Homo sapiens, T47D, NCI-60, 48 h, breast
U251 = assay: NCI-60 cytotoxicity screen; type: cell-based; conditions: Homo sapiens, U-251; NCI-60, 48 h, CNS
Source text: (§1) Compounds 3–7 were submitted to the US National Cancer Institute (NIH, Bethesda, Maryland) for screening against the NCI-60 panel of human cancer cell lines, as per standard protocol.

KM12 = assay: NCI-60 cytotoxicity screen; type: cell-based; conditions: Homo sapiens, NCI-60, 48 h, colon
Source text: as §1

786-0 = assay: NCI-60 cytotoxicity screen; type: cell-based; conditions: Homo sapiens, NCI-60, 48 h, renal
Source text: as §1

SF-539 = assay: NCI-60 cytotoxicity screen; type: cell-based; conditions: Homo sapiens, NCI-60, 48 h, CNS
Source text: as §1

SK-MEL-28 = assay: NCI-60 cytotoxicity screen; type: cell-based; conditions: Homo sapiens, NCI-60, 48 h, melanoma
Source text: as §1

SR = assay: NCI-60 cytotoxicity screen; type: cell-based; conditions: Homo sapiens, NCI-60, 48 h, leukaemia
Source text: as §1

M14 = assay: NCI-60 cytotoxicity screen; type: cell-based; conditions: Homo sapiens, NCI-60, 48 h, melanoma
Source text: as §1

RPMI-8226 = assay: NCI-60 cytotoxicity screen; type: cell-based; conditions: Homo sapiens, NCI-60, 48 h, leukaemia
Source text: as §1

UACC-62 = assay: NCI-60 cytotoxicity screen; type: cell-based; conditions: Homo sapiens, NCI-60, 48 h, melanoma
Source text: as §1

PC-3 = assay: NCI-60 cytotoxicity screen; type: cell-based; conditions: Homo sapiens, NCI-60, 48 h, prostate
Source text: as §1

HL-60 = assay: NCI-60 cytotoxicity screen; type: cell-based; conditions: Homo sapiens, NCI-60, 48 h, leukaemia
Source text: as §1

MCF-7 = assay: NCI-60 cytotoxicity screen; type: cell-based; conditions: Homo sapiens, MCF7; NCI-60, 48 h, breast
Source text: as §1

H23 = assay: NCI-60 cytotoxicity screen; type: cell-based; conditions: Homo sapiens, NCI-60, 48 h, NSCLC
Source text: as §1

A549 = assay: NCI-60 cytotoxicity screen; type: cell-based; conditions: Homo sapiens, NCI-60, 48 h, NSCLC
Source text: as §1

UO-31 = assay: NCI-60 cytotoxicity screen; type: cell-based; conditions: Homo sapiens, NCI-60, 48 h, renal
Source text: as §1

ACHN = assay: NCI-60 cytotoxicity screen; type: cell-based; conditions: Homo sapiens, NCI-60, 48 h, renal
Source text: as §1

HCT116 = assay: NCI-60 cytotoxicity screen; type: cell-based; conditions: Homo sapiens, HCT-116; NCI-60, 48 h, colon
Source text: as §1

HOP-62 = assay: NCI-60 cytotoxicity screen; type: cell-based; conditions: Homo sapiens, NCI-60, 48 h, NSCLC
Source text: as §1

LOX IMVI = assay: NCI-60 cytotoxicity screen; type: cell-based; conditions: Homo sapiens, NCI-60, 48 h, melanoma
Source text: as §1

HCT15 = assay: NCI-60 cytotoxicity screen; type: cell-based; conditions: Homo sapiens, HCT-15; NCI-60, 48 h, colon
Source text: as §1

IGROV-1 = assay: NCI-60 cytotoxicity screen; type: cell-based; conditions: Homo sapiens, NCI-60, 48 h, ovarian
Source text: as §1

SF-295 = assay: NCI-60 cytotoxicity screen; type: cell-based; conditions: Homo sapiens, NCI-60, 48 h, CNS
Source text: as §1

H460 = assay: NCI-60 cytotoxicity screen; type: cell-based; conditions: Homo sapiens, NCI-60, 48 h, NSCLC
Source text: as §1

SF-268 = assay: NCI-60 cytotoxicity screen; type: cell-based; conditions: Homo sapiens, NCI-60, 48 h, CNS
Source text: as §1

SK-MEL-5 = assay: NCI-60 cytotoxicity screen; type: cell-based; conditions: Homo sapiens, NCI-60, 48 h, melanoma
Source text: as §1

OVCAR-8 = assay: NCI-60 cytotoxicity screen; type: cell-based; conditions: Homo sapiens, NCI-60, 48 h, ovarian
Source text: as §1

OVCAR-4 = assay: NCI-60 cytotoxicity screen; type: cell-based; conditions: Homo sapiens, NCI-60, 48 h, ovarian
Source text: as §1

COLO205 = assay: NCI-60 cytotoxicity screen; type: cell-based; conditions: Homo sapiens, COLO 205; NCI-60, 48 h, colon
Source text: as §1

DU-145 = assay: NCI-60 cytotoxicity screen; type: cell-based; conditions: Homo sapiens, NCI-60, 48 h, prostate
Source text: as §1

HS 578 T = assay: NCI-60 cytotoxicity screen; type: cell-based; conditions: Homo sapiens, NCI-60, 48 h, breast
Source text: as §1

[1] = tested on: A2780 ovarian cancer cell line; assay: MTT cellular viability assay, A2780; type: cell-based; conditions: Homo sapiens
H322M = assay: NCI-60 cytotoxicity screen; type: cell-based, human; conditions: for IC50: Homo sapiens, NCI-H322M, NCI-60, 48 h, NSCLC
Source text: as §1

TK-10 = assay: NCI-60 cytotoxicity screen; type: cell-based, human; conditions: for IC50: Homo sapiens, TK-10, NCI-60, 48 h, renal
Source text: as §1

UACC-257 = assay: NCI-60 cytotoxicity screen; type: cell-based, human; conditions: for IC50: Homo sapiens, UACC-257, NCI-60, 48 h, melanoma
Source text: as §1

OVCAR-5 = assay: NCI-60 cytotoxicity screen; type: cell-based; conditions: Homo sapiens, NCI-60, 48 h, ovarian
[2] = tested on: MCF7 breast cancer cell line; assay: MTT cellular viability assay, MCF7; type: cell-based; conditions: Homo sapiens, 96 h
Procedure: The human A2780 ovarian (#93112519) and MCF-7 breast (#86012803) cancer cell lines were obtained from the European Cell Culture Collection (ECACC; Salisbury, UK). The human cardiac ventricular AC16 cell line (#SCC109) was obtained from Merck/Millipore (UK). The A2780 and MCF-7 cell lines were maintained in RPMI-1640 medium and the AC16 cell line was maintained in DMEM/F12 medium. Culture medium of all three cell lines was supplemented with 10% heat-inactivated foetal bovine serum (FBS) and 2 mM L-glutamine, with the cells maintained in a humidified 5% CO2 atmosphere at 37 °C. The media was changed every 72h and the cells passaged via trypsinisation (Trypsin EDTA, 0.25%) before reaching confluency.
Cytotoxicity of each compound against the cell lines was assessed using the MTT assay. Cells were seeded in three replicates into 96-well plates at a density of 2 × 10^3/well for 24h to facilitate cell attachment. Media was replaced with that containing either test compound (0–10µM) for A2780 and MCF7 cell lines, single concentration (10 µM) test compound for AC16 cell line, or drug vehicle (dimethyl sulphoxide; DMSO) and the cells incubated for a further 96 h at 37 °C in a humidified 5% CO2 atmosphere. […] Chemosensitivity was thereafter assessed using a standard 3-[4, 5-dimethylthiazolyl]-2,5-diphenyltetrazolium bromide (MTT) assay, with the optical density determined at 540 nm as an indicator of cellular viability.

[3] = A2780, MTT, 96 h, read-out: A2780 IC50
[4] = listed as A2780* of Table 4, ovarian, values as in Tables 1 and 2 (MTT), read-out: A2780* cytotoxicity IC50

In the case of C=C(CN1CCN(c2ccccc2C(F)(F)F)CC1)c1ccc(C(=O)Nc2ccccc2N)cc1 [Compound 3, N-(2-aminophenyl)-4–(3-(4–(2-(trifluoromethyl)phenyl)piperazin-1-yl)prop-1-en-2-yl)benzamide], the IC50 (T-47D) is reported as 7.67 µM, the IC50 (U251) is reported as 4.63 µM and the IC50 (KM12) is reported as 2.04 µM. For the same compound, the IC50 (786-0) was 2.36 µM, the IC50 (SF-539) was 3.27 µM and the IC50 (SK-MEL-28) was 10.3 µM. It also gave an IC50 (SR) of 2.36 µM, an IC50 (M14) of 4.47 µM and an IC50 (RPMI-8226) of 0.16 µM. For the same compound, the IC50 (UACC-62) was 9.16 µM, the IC50 (PC-3) was 1.91 µM and the IC50 (HL-60) was 0.04 µM. It also gave an IC50 (MCF-7) of 4.48 µM, an IC50 (H23) of 5.93 µM and an IC50 (A549) of 4.17 µM. For the same compound, the IC50 (UO-31) was 1 µM, the IC50 (ACHN) was 7.19 µM and the IC50 (HCT116) was 3.09 µM. For the same compound, the IC50 (HOP-62) was 4.76 µM, the IC50 (LOX IMVI) was 5.86 µM and the IC50 (HCT15) was 4.89 µM. For the same compound, the IC50 (IGROV-1) was 6.03 µM, the IC50 (SF-295) was 5.97 µM and the IC50 (H460) was 5.58 µM. For the same compound, the IC50 (SF-268) was 4.55 µM, the IC50 (SK-MEL-5) was 3.01 µM and the IC50 (OVCAR-8) was 3.84 µM. For the same compound, the IC50 (OVCAR-4) was 6.53 µM, the IC50 (COLO205) was 11.5 µM and the IC50 (DU-145) was 7.52 µM. It also gave an IC50 (HS 578 T) of 12.8 µM, an IC50 [1, 3] of 7.5 ± 0.7 µM and an IC50 [1, 4] of 7.5 µM. For the same compound, the IC50 (H322M) was 11.4 µM, the IC50 (TK-10) was 4.63 µM and the IC50 (UACC-257) was 4.67 µM. The IC50 (OVCAR-5) was 11.8 µM and the IC50 [2] was 7.3 ± 0.4 µM.
For C=C(CN1CCN(c2cccc(C(F)(F)F)c2)CC1)c1ccc(C(=O)Nc2ccccc2N)cc1 [Compound 4, N-(2-aminophenyl)-4–(3-(4–(3-(trifluoromethyl)phenyl)piperazin-1-yl)prop-1-en-2-yl)benzamide], the IC50 (T-47D) was 13.2 µM, the “fold less sensitive than to 1, T-47D” value (T-47D; T-47D breast cell line) was greater than 28 fold and the IC50 (U251) was 1.17 µM. The IC50 (KM12) was 0.49 µM, the IC50 (786-0) was 1.1 µM and the IC50 (SF-539) was 0.54 µM. The IC50 (SK-MEL-28) was 3.4 µM, the IC50 (SR) was 0.02 µM and the IC50 (M14) was 1.05 µM. The IC50 (RPMI-8226) was 0.32 µM, the IC50 (UACC-62) was 0.41 µM and the IC50 (PC-3) was 0.62 µM. For the same compound, the IC50 (HL-60) was 0.12 µM, the IC50 (MCF-7) was 1.24 µM and the IC50 (H23) was 3.72 µM. For the same compound, the IC50 (A549) was 1.48 µM, the IC50 (UO-31) was 2.39 µM and the IC50 (ACHN) was 0.92 µM. It also gave an IC50 (HCT116) of 1.14 µM, an IC50 (HOP-62) of 0.7 µM and an IC50 (LOX IMVI) of 0.12 µM. It also gave an IC50 (HCT15) of 0.48 µM, an IC50 (IGROV-1) of 14.2 µM and an IC50 (SF-295) of 0.54 µM. For the same compound, the IC50 (H460) was 1.56 µM, the IC50 (SF-268) was 1.43 µM and the IC50 (SK-MEL-5) was 0.57 µM. The IC50 (OVCAR-8) was 1.4 µM, the IC50 (OVCAR-4) was 3.94 µM and the IC50 (COLO205) was 3.45 µM. It also gave an IC50 (DU-145) of 1.36 µM, an IC50 (HS 578 T) of 0.49 µM and an IC50 [1, 3] of 1.6 ± 0.5 µM. For the same compound, the IC50 [1, 4] was 1.6 µM, the “fold improvement in cytotoxicity sensitivity compared to 7, H322M” value (H322M; H322M NSCLC) was “approximately 100 fold” and the IC50 (H322M) was 0.94 µM. The IC50 (TK-10) was 0.81 µM, the “fold improvement in cytotoxicity sensitivity compared to 7, TK-10” value (TK-10; TK-10 renal) was roughly 20 fold and the IC50 (UACC-257) was 0.76 µM. The “fold improvement in cytotoxicity sensitivity compared to 7, UACC-257” value (UACC-257; UACC-257 melanoma) was roughly 35 fold, the IC50 (OVCAR-5) was 6.62 µM and the IC50 [2] was 1.4 ± 0.1 µM.
